From US6174858A, “Conjugates useful in the treatment of prostate cancer” (Merck & Co., Inc., priority 1998, dated 2001)
pEC50: −log10 of the molar value. Like-named read-outs stand apart in the source and are kept apart here. Square brackets hold non-standard residues; d marks the D form. dAc‑VIN = 4-desacetylvinblastine; Chg = N[C@H](C(=O)O)C1CCCCC1

Tests used:
free PSA (York PSA) = biological target: T1, free PSA (York PSA) (Homo sapiens, UniProt P07288); test: Recognition of oligopeptide-vinca drug conjugates by free PSA (time to 50% cleavage, HPLC); type: biochemical; settings: for Time to 50% Substrate Cleavage by York PSA: conjugate to PSA molar ratio 100 to 1, pH 7.4
T1 construct: purchased York ('York PSA')
Method: The reaction was quenched after various reaction times by the addition of trifluoroacetic acid (TFA) to a final 1% (volume/volume). Alternatively the reaction is quenched with 10 mM ZnCl2. The quenched reaction was analyzed by HPLC on a reversed-phase C18 column using an aqueous 0.1%TFA/acetonitrile gradient. The amount of time (in minutes) required for 50% cleavage of the noted oligopeptide-cytotoxic agent conjugates with enzymatically active free PSA were then calculated.

[1] = test system: LNCaP prostate tumor cells; test: In vitro cytotoxicity, Alamar Blue assay, LNCaP cell kill; type: cell-based
Method: (§1) In vitro Assay of Cytotoxicity of Peptidyl Derivatives of Vinca Drugs
(§2) Specifically, cell cultures of LNCap prostate tumor cells, Colo32ODM cells (designated C320) or T47D cells in 96 well plates was diluted with medium containing various concentrations of a given conjugate (final plate well volume of 200 μl). […] The cells were incubated for 3 days at 37° C., 20 μl of Alamar Blue is added to the assay well. The cells were further incubated and the assay plates were read on a EL-310 ELISA reader at the dual wavelengths of 570 and 600 nm at 4 and 7 hours after addition of Alamar Blue. Relative percentage viability at the various concentration of conjugate tested was then calculated versus control (no conjugate) cultures and an EC50 was determined. Unless otherwise indicated, the acetate salt of the conjugate was tested.

Colo320DM cells = test: In vitro cytotoxicity, Alamar Blue assay, Colo320DM control cell line (does not express free PSA); type: cell-based
Method: as §1
as §2, with “The cytotoxicities of the cleaveable oligopeptide-vinca drug conjugates, prepared as described in Example 3, against a line of cells which is known to be killed by unmodified vinca drug was assessed with an Alamar Blue assay. Specifically,” for “Specifically,”

[2] = 72 HRS, read-out: LNCaP Cell Kill in 72 HRS. {48 HRS} EC 50
[3] = 72 HRS, second part of Table 2, read-out: LNCaP Cell Kill in 72 HRS. {48 HRS} EC 50
[4] = 72 HRS, read-out: Colo320DM EC 50
[5] = 72 HRS, second part of Table 2, read-out: Colo320DM EC 50

T1 sequence (P07288 25-261): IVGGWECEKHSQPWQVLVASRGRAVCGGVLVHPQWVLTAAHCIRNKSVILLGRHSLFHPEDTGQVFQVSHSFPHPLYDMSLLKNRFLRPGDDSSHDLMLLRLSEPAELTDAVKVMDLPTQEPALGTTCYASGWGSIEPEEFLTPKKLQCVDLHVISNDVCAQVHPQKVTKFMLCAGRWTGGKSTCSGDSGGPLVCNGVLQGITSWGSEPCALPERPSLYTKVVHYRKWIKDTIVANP

Substance | Time to 50% Substrate Cleavage by York PSA (free PSA (York PSA)) | Time to 50% Substrate Cleavage by York PSA (free PSA (York PSA); listed as Ac-4-trans-L-HypSSChgQSS-(4-O-Sar)-(dAc)-VIN) | pEC50 [1, 2] | pEC50 [1, 3] | pEC50 (Colo320DM cells; [4]) | pEC50 (Colo320DM cells; [5]) | Substrate cleavage by York PSA after 1 HOUR (free PSA (York PSA)) | pEC50 ([1]; in 5% FBS, read-out: LNCaP Cell Kill EC 50 in 5% FBS) | pEC50 (Colo320DM cells; in 5% FBS, read-out: Colo320DM EC 50 in 5% FBS)
4-O-(Ac-4-trans-L-HypSSChgQSS-Sar)-(dAc)-VIN: peptide-vinca drug conjugate, printed under SEQ ID NO 86 and 105 (XSSXQSSG; N-acetyl; desacetylvinblastine conjugate) | 32 min | 15 min | 5.39 | 4.92 | 4.89 | 4.92 | – | – | –
4-O-[Ac--SChgQSS-Sar]-dAc-VIN: peptide-vinca drug conjugate, SEQ ID NO 118 (XXQSSG; N-acetyl; desacetylvinblastine conjugate) | 39 min | – | – | 6.10 | – | 5.52 | – | – | –
4-O-(Ac-4-trans-L-HypSSChgQSS-(d)-Pro)-(dAc)-VIN: peptide-vinca drug conjugate, SEQ ID NO 87 (XSSXQSSP; N-acetyl; D-Pro; desacetylvinblastine conjugate) | – | – | 5.39 | – | 5.09 | – | 34% | – | –
4-O-((2-OH)Ac-Abu-SSChgQ-S-P)-dAc-VIN: peptide-vinca drug conjugate, SEQ ID NO 91 (XSSXQSP; N-hydroxyacetyl; desacetylvinblastine conjugate) | 110 min | – | 4.92 | – | 4.28 | – | – | – | –
Ac-4-trans-L-HypSSChgQS-(4-O-Ala)-(dAc)-VIN: peptide-vinca drug conjugate, SEQ ID NO 103 (XSSXQSA; N-acetyl; desacetylvinblastine conjugate) | 23 min | – | – | 4.90 | – | 4.49 | – | – | –
4-O-(Ac-SSChgQS-Gly)-(dAc)-VIN: peptide-vinca drug conjugate, SEQ ID NO 98 (Ac-SS[Chg]QSG-{dAc‑VIN}; also: C-terminal ester to 4-OH of desacetylvinblastine) | 55 min | – | 4.79 | – | 4.79 | – | – | – | –
4-O-(Ac-4-trans-L-HypSSChgQ-S-P)-dAc-VIN: peptide-vinca drug conjugate, SEQ ID NO 96 (XSSXQSP; N-acetyl; desacetylvinblastine conjugate) | – | – | 4.32 | – | 4.08 | – | 8% | < 4.80 | 4.59
